Patent US20190307783A1, “USE OF ANTIVIRALS TO INHIBIT PROTOZOAN VIRUSES” (priority 2016, published 2019)
pEC50: −log10 of the molar value. Several values for one entry are separate records, joined by “and”; a condition that tells them apart may be missing. Identical values can stand only once. Entries after “also recorded” stand apart in the source; their conditions may differ.

What was measured:
[1] = system: LRV1+ Lgy M4147 parasites; experiment: Intracellular 2CMA-TP accumulation and retention in parasites (HPLC); assay type: in vitro ADME, Leishmania guyanensis; conditions: for Intracellular 2CMA-TP concentration: 18 hours, n=4
Excerpt: To account for the relative sensitivity of Lgy LRV1 to 2CMA compared to the insensitivity of LRV1 RDRP activity to inhibition by 2CMA-TP, we hypothesized that parasites take up and activate 2CMA, accumulating high 2CMA-TP concentrations. We first identified an HPLC protocol capable of resolving both synthetic 2CMA-TP and a smaller peak we presume to be 2CMA-DP from natural ribonucleotides and the internal standard, dGTP (FIG. 23A and FIG. 23B). Standard mixtures of known concentration were used to generate a standard curve relating peak area to 2CMA-TP amounts (FIG. 30). We then tested several protocols for extracting parasite nucleotides and determined that extraction with 1:1 acetonitrile:water performed best. Using this protocol, we compared the nucleotide profiles of LRV1+ Lgy grown in the presence or absence of 10 μM extracellular 2CMA for 18 hours, a time chosen because it corresponds to about two rounds of parasite replication. Under these conditions, we observed a peak co-eluting with synthetic 2CMA-TP that was absent from untreated parasites (FIG. 25B), establishing the parasite's capacity to phosphorylate 2CMA.
We then measured steady-state levels of intracellular 2CMA-TP following incubation of late-log-phase parasites with 2CMA for 18 hours. To determine the intracellular concentration of 2CMA-TP under these conditions, we measured the average volume of the parasites (roughly 23 fL). […] Over this range of concentrations, internal 2CMA-TP levels exceeded external 2CMA concentrations by 40- to 80-fold (FIG. 26A and FIG. 26B), attesting to the potency of the parasite's purine salvage pathway.
Cultures of WT or GFP-expressing LRV1+ Lgy M4147 were seeded at 2×10^5 cells/mL and analyzed when they reached early, mid, or late log phase. From each sample, one aliquot was analyzed by light scattering on a flow-cytometer, while another was immobilized by treatment with 20 mM sodium azide and imaged by spinning-disk confocal microscopy {Ellenberger, 1987}. Cell volumes were calculated using a custom ImageJ script {Schindelin, 2012}. A standard curve relating forward scattering intensity to measured volume was developed and used to estimate metabolite concentrations (FIG. 29).
For drug metabolism studies, 10^8 late-log phase parasites in 5 mL of Schneider's medium were treated with indicated drug concentrations for 20 hours. For accumulation assays, 10^8 cells were harvested immediately. In ‘washout’ experiments, one 5 mL culture was grown for each replicate of each time point. These cultures were spun down, resuspended in drug-free medium, centrifuged again, and finally suspended in 5 mL drug-free Schneider's medium. After 2, 4, or 8 hours, nucleotides were extracted from 10^8 parasites from individual washed cultures and analyzed by HPLC.
For each sample, cells were collected by centrifugation at 2200×g, 4° C. for 5 minutes, re-suspended in 1 mL ice-cold PBS and re-centrifuged. The cell pellet was gently re-suspended in 100 μL ice-cold 0.5×PBS plus 7 nmol dGTP as a recovery and elution standard. […] Cells were immediately lysed by rapidly re-suspending in 900 μL ice-cold 5:4 acetonitrile:water mixture {Au, 1989} and vortexing continuously for 5 min at 4° C. Insoluble debris was pelleted at 16,000×g for 5 minutes and the clarified extract was transferred to a fresh tube. The solvent was removed by evaporation in a SAVANT SpeedVac concentrator (Thermo Scientific) with the heater off and the vacuum pump refrigeration on. Samples were re-suspended with 80 μL distilled water, flash frozen, and stored at −80° C. prior to HPLC analysis.
Nucleoside di- and tri-phosphates were separated by isocratic HPLC as described {Moal, 1989}. […]

LRV2 = experiment: Virus levels in L. major strain 5-ASKH bearing LRV2; assay type: cell-based, Leishmania major; conditions: data not shown
Excerpt: A second line of inquiry would of course be the development of anti-LRV1 agents with improved potency.

[2] = HPLC test of 2CMA-TP degradation during the RDRP reaction; assay type: physicochemical; conditions: 1 hr incubation, 300 μM, n=3
Protocol: Incubation of the three LRV1 populations with 2CMA-TP reduced synthesis of both the full-length and small RDRP products (FIG. 22A, FIG. 22B, FIG. 23A, FIG. 23B, and FIG. 24). The synthesis of each product was quantitated and normalized to that obtained with drug-free controls, from which IC50s were calculated (Table 3). […] We were concerned that this arose artificially from 2CMA-TP degradation during the assay.
To study inhibition of the viral RDRP by 2CMA-TP, varying amounts of the compound were added to standard RDRP reaction mixtures. 2CMA-TP was custom synthesized by Jena Bioscience, and its identity was confirmed using electrospray ionization with a Fourier-transform mass spectrometer in negative ion mode (Thermo Scientific). The stock concentration of 2CMA-TP was calculated by UV absorption at 260 nm, assuming that its molar extinction coefficient was identical to ATP. To measure the amount of 2CMA-TP which is non-specifically hydrolyzed over the course of an RDRP reaction, mock reactions were run using LRV1− gradient fractions, cold UTP, and 300 μM 2CMA-TP. The 20-μL reactions were diluted to 80 μL with distilled water and immediately analyzed by HPLC as described below.

[3] = system: LRV1 (LgyLRV1 capsid levels); experiment: microbe, parasite or virus in culture
Excerpt: Because LRV1 (like most Totiviridae) is not shed from the cell (33, 34), we developed a flow cytometric assay to measure intracellular LRV1 capsid levels on a per cell basis. To detect LRV1 we used binding to a rabbit anti-LgyLRV1 capsid antiserum (35) followed by detection with Alexa Fluor488-conjugated goat anti-rabbit IgG.
(§1) Parasites were inoculated at 2×10^5 cells/mL into Schneider's media lacking supplemental adenine.
For capsid flow cytometry, 10^7 cells were fixed at room temperature using 2% (wt/vol) paraformaldehyde (Thermo Fisher Scientific) in PBS for 2 minutes. They were then incubated in blocking buffer [10% (vol/vol) normal goat serum (Vector Laboratories, Burlingame, Calif., USA) and 0.2% TRITON X-100 in PBS] for 30 minutes at room temperature. Anti-LgyLRV1 capsid antibody (35) was added (1:20,000 dilution) and incubated at room temperature for 1 hour. After two washes with PBS, cells were resuspended in 200 μL PBS with Alexa Fluor488-labeled goat anti-rabbit IgG (Alexafluor, Invitrogen; 1:1,000; or Thermo Fisher Scientific; 1:2,000 dilution), and incubated 1 hour at room temperature. After two additional washes with PBS, cells were subjected to flow cytometry, gating for single cells using forward and side scatter and the data analyzed using […] software (BD Bioscience, San Jose, Calif., USA).

Zika virus = conditions: cultured mammalian cells; read-out: EC50 against Zika virus; cited from earlier work
L. guyanensis (LgyLRV1+) = experiment: Drug-inhibition test: growth of LgyLRV1+ parasites; assay type: cell-based, Leishmania guyanensis
Protocol: These compounds were examined for their ability to inhibit the growth of LgyLRV1^+ and virus levels by LRV1 capsid flow cytometry.
Most studies were performed using luciferase-expressing transfectants of L. guyanensis (MHOM/BR/78/M4147) described previously [LRV1^+ LgyM4147/SSU:IR2SAT-LUC(b)c3 and LRV^−LgyM4147/pX63HYG/SSU:IR2SAT-LUC(b)c4] (54); these lines are termed LgyLRV1^+ and LgyLRV1^−, respectively. Two strains of LRV1^+L. braziliensis were examined: LEM2780 (MHOM/BO/90/CS) and LEM3874 (MHOM/BO/99/IMT252 no. 3) (12). Parasites were grown in Schneider's media (Sigma Aldrich, St. Louis, Mo., USA) prepared according to the supplier's instructions with pH adjusted to 6.5 and supplemented with 0.76 mM hemin, 2 μg/mL biopterin, 50 U/mL penicillin, 50 μg/mL streptomycin, and 10% (vol/vol) heat-inactivated FBS. Cell concentrations were determined using a Coulter Counter ([…], Indianapolis, Ind., USA).
as §1

[4] = animal models; cited from earlier work
Lgy LRV1 RDRP = Lgy LRV1 RDRP (Leishmania RNA virus 1 - 4, UniProt Q02382); experiment: RDRP assay of purified virions, [α-32P]UTP incorporation; assay type: biochemical, Leishmania RNA virus 1 (Lgy strain M4147); conditions: highest concentration tested 600 μM
Lgy LRV1 RDRP, sequence (Q02382 whole entry): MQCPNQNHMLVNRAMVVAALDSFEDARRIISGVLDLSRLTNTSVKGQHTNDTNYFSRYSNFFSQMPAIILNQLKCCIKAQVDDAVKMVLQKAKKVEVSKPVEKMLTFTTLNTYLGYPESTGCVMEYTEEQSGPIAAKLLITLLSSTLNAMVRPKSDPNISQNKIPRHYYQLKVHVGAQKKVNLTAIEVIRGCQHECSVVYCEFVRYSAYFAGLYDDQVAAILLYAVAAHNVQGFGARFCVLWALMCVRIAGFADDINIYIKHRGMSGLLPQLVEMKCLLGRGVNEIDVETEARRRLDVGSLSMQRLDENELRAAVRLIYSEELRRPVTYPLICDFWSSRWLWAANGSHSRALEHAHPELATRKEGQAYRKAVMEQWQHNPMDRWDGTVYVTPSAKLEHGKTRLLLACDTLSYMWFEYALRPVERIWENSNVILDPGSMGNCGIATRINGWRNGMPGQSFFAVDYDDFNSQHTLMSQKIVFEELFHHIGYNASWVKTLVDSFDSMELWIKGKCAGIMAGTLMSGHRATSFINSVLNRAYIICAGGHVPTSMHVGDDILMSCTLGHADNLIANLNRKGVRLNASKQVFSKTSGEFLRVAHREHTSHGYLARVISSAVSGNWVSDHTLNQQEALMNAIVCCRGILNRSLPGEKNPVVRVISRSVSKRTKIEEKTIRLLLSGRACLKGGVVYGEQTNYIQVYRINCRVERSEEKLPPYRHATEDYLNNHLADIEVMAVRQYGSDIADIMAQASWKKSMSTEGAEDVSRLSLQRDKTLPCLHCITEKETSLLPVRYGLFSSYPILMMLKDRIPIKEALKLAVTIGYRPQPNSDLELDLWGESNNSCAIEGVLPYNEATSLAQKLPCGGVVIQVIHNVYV
Protocol: RDRP assays were carried out with LRV1 virions purified from Lgy strain M4147 by an established cesium chloride (CsCl) equilibrium ultracentrifugation procedure {Widmer, 1989; Widmer, 1990}. Following separation, virus particles were detected and quantified by their reactivity with an anti-capsid antibody (FIG. 21). We reproducibly observed three overlapping ‘peaks’, designated low-, medium-, and high-density (LD, MD and HD) in order of increasing density. […] The densities of the Lgy LRV1 LD, MD and HD peaks were 1.29, 1.36 and 1.41 g/mL, in good agreement with the densities of L-A virus particles bearing ssRNA- and dsRNA- (1.31 and 1.41 g/mL, respectively) {Esteban, 1986}. […]
To measure RDRP activity, purified virions were allowed to incorporate [α-^32P]UTP in the presence of the remaining nucleoside triphosphates for 1 hour, a time chosen to allow one round of transcription or replication of the viral genome {Widmer, 1990}. RNA was purified and separated by native gel electrophoresis, and the products were visualized and quantified. […]
RDRP activity of purified virions was measured using an [α-^32P]UTP incorporation assay described previously{Widmer, 1990}. […] The standards lane was excised and stained with ethidium bromide, while the radiolabeled products were detected by exposing an imaging plate for 24 hours and reading it with a FLA-5100 phosphoimager (Fujifilm, Tokyo, Japan). […]

Structure (SMILES): C[C@@]1(O)[C@H](O)[C@@H](COP(=O)(O)OP(=O)(O)OP(=O)(O)O)O[C@H]1n1cnc2c(N)ncnc21 [Compound 2CMA-TP, 2′-C-methyladenosine triphosphate]
- Intracellular 2CMA-TP concentration ([1]; 1 μM external 2CMA): 78 ± 9.0 µM and 80 µM
- Intracellular 2CMA-TP concentration ([1]; 3 μM external 2CMA): 152 ± 43 µM
- Intracellular 2CMA-TP concentration ([1]; 10 μM external 2CMA): 410 ± 110 µM and 410 µM
- Accumulated 2CMA-TP retained ([1]; 4 hours in drug-free medium after 18 hours in 10 μM 2CMA): approximately 50%
- Intrinsic 8 hour 2CMA-TP concentration ([1]; 8 hours in drug-free medium, corrected for population growth): 230 ± 130 µM
- Average 2CMA-TP concentration after washout ([1]; 8 hours in drug-free medium, not corrected for parasite replication): 170 ± 100 µM
- Inhibition of LRV2 virus levels, in words (LRV2): no inhibition of virus levels
- 2CMA-TP degraded (to apparent 2CMA-DP) during the assay [2]: 3.7±0.6%

Structure (SMILES): C[C@@]1(O)[C@H](O)[C@@H](CO)O[C@H]1n1ccc2c(N)ncnc21 [2′C-methyl-7-deaza-adenosine, 7-deaza-2′-C-methyladenosine]
- activity at 100 µM ([3]; 48 h, read-out: Percent control (LRV1 capsid)): 10%
- Selectivity for LRV1 versus L. guyanensis growth inhibition ([3]; EC50 growth vs EC50 LRV1 capsid): > 20 fold
- LRV1 capsid (geometric mean FU) ([3]; LgyLRV1+, tested at 100 μM, 2 days): 27 FU
- pEC50 ([3]; read-out: EC50 for LRV1 capsid inhibition): ~5.30
- Reduction in LRV1 capsid levels ([3]; tested at 100 μM): 12 fold
- pEC50 (Zika virus): 5.00
- activity at 100 µM (L. guyanensis (LgyLRV1+); Leishmania guyanensis, 48 h, LgyLRV1+, tested at 100 μM, growth after 2 days, read-out: Percent control (density)): 20%
- pEC50 (L. guyanensis (LgyLRV1+); Leishmania guyanensis, L. guyanensis, relative cellular growth rate, titration, read-out: EC50 for parasite growth): < 4.00
- inhibition at 100 µM (L. guyanensis (LgyLRV1+); Leishmania guyanensis, tested at 100 μM, read-out: Inhibition of parasite density): 90%
- Density (cells/mL) (L. guyanensis (LgyLRV1+); LgyLRV1+, tested at 100 μM, growth after 2 days): 3.38E+6 cells/mL
- Serum half-life [4]: 1.6 h

Structure (SMILES): Nc1ncnc2c1ncn2[C@H]1C[C@H](O)[C@@H](COP(=O)(O)OP(=O)(O)OP(=O)(O)O)O1 [dATP]
- Inhibition of RDRP activity, in words (Lgy LRV1 RDRP): failed to inhibit; also recorded: completely inactive
